From publication PMC9946977, “Identification of linderalactone as a natural inhibitor of SHP2 to ameliorate CCl4-induced liver fibrosis” (Frontiers in Pharmacology, 2023)

Target: T1, SHP2 PTP domain (Homo sapiens, UniProt Q06124)
T1 construct: Human SHP2 PTP domain (A237–I529) expression constructs; His-tag; made in house; host or cells: E. coli BL21 (DE3)
T1 sequence (Q06124 237-529): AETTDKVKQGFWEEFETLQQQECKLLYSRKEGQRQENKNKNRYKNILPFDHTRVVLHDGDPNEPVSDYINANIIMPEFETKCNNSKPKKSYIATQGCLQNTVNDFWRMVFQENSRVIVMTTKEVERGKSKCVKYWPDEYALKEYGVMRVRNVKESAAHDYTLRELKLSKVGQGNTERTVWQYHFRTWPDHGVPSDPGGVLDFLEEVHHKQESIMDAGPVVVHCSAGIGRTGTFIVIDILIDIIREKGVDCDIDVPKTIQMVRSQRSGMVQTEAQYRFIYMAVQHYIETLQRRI
Assay: SHP2 inhibition assay (DiFMUP) with SHP2-PTP; HTS and dose-response
Format: biochemical
Settings: 0.5 nM SHP2-PTP, DiFMUP substrate, 30 min co-incubation at 20°C; read-out: IC50 against the SHP2 PTP domain
Experimental: Human SHP2 PTP domain (A237–I529) expression constructs were engineered by cloning PTPN11 (NP_002825.3) into the pET30 plasmid with a His-tag to support further protein purification. The K366A/Q510A double mutation was introduced into the wild-type template using a site-directed mutagenesis kit (E0554S; New England Biolabs). The expression constructs were sequenced and transformed into BL21 (DE3)-competent cells. E. coli cells were grown at 37°C in an LB culture medium in the presence of […] kanamycin until the OD600 reached 1.0. The medium was then cooled to 18°C and 1 mM isopropyl ß-D-1-thiogalactopyranoside (IPTG) was added to induce protein expression overnight.
A surrogate phosphatase substrate, 6,8-difluoro-4-methylumbelliferyl phosphate (DiFMUP, Thermo Fisher, #D22065), was used to monitor the catalytic activity of SHP2 in a prompt fluorescence assay format. Specifically, the DiFMUP phosphatase assay was performed at 20°C in a 384-well Griener CELLSTAR black polystyrene plate in the buffer condition of 60 mM HEPES (pH7.5), 75 mM NaCl, 75 mM KCl, 1 mM EDTA, 0.05% Tween-20, 5 mM dithiothreitol (DTT). The final reaction volume was 25 μL. NP compound libraries were obtained from TargetMol at a stock concentration of 10 mM, dissolved in DMSO. The purity of the active compound LIN used in this study is 96.27% as tested by HPLC analysis. The HPLC traces is shown in Supporting Information. We co-incubated 0.5 nM of SHP2-PTP enzyme with tested NPs for 30 min at 20°C, followed by the addition of DiFMUP into the reaction. After 30 min, 5 μL of bpV(phen) solution was added to quench the dephosphorylation reaction. The signals were read on a plate reader (SpectraMax iD5, Molecular Devices). The excitation and emission wavelengths were 340 and 450 nm, respectively. The inhibitor dose-response curves were evaluated using a normalised IC50 regression curve fitting with control-based normalisation. For the full-length SHP2 inhibition assay, 0.5 μM of a bisphosphorylated pIRS-1 peptide (ChinaPeptides Ltd. Shanghai) was added for partial SHP2 activation. […]

IC50: 12.6 ± 4.2 µM
Structure (SMILES): C=C1C2CC2[C@@]2(C)Cc3occ(C)c3C(O)C12 (stereo partly shown) [Lindenenol, lindenenol]
